Here are results for twelve molecules from patent US3956336A, “9-Alkoxy-5-methyl-6,7-benzomorphans” (Bristol-Myers Company, priority 1975, dated 1976).

Holding throughout (type): in vivo
For experiment [1], the system named is Straub Tail induced by oxymorphone. Put plainly: Antagonism of oxymorphone-induced Straub Tail. Particulars: mice, subcutaneous, oxymorphone 2 mg./kg. sc., as free base; for ED50: Mus musculus, read-out: ED50 Antagonist Activity, Oxymorphone Straub Tail. As to the method: (§1) In vivo testing was conducted on various compounds of the instant invention in the form of their respective soluble salts to determine their agonist and/or antagonist properties. The figures reported are the number of milligrams/kilogram of body weight of compound that produced an agonist or antagonist effect in 50% of the mice and rats so tested (ED50). All data is obtained by subcutaneous administration.
^2 Antagonism of Straub Tail induced by oxymorphone (2 mg./kg. sc.) i

Experiment [2] concerns phenylquinone induced writhing. Put plainly: Phenylquinone writhing, agonist activity, mouse. The conditions noted are these: subcutaneous, 50 percent reduction in number of writhing, as free base; for ED50: sc. The procedure:
as §1
(§2) ^1 A 50 percent reduction in number of phenylquinone induced writhing
(§3) (Siegmund, E. A. et al., Proc. Soc. Biol. & Med. 95, 729; 1957).
In general terms: Writhing tests count abdominal constrictions after an irritant is injected.

Experiment [3] has as its system righting reflex loss induced by oxymorphone. The experiment can be described thus: animal or person. The conditions noted are these: rats, subcutaneous, oxymorphone 1.5 mg./kg. sc., as free base; for ED50: Rattus norvegicus, read-out: ED50 Antagonist Activity, Oxymorphone Narcosis. The procedure: as §1
^3 Antagonism of righting reflex loss induced by oxymorphone (1.5
mg./kg. sc.) in 50 percent of rats.

Experiment [4] concerns analgesic effect induced by morphine. Put plainly: animal or person. The conditions noted are these: subcutaneous, morphine 15 mg./kg. sc., 50 percent reduction of analgesic effect, as free base; for ED50: rat, read-out: ED50 Antagonist Activity, Morphine Antagonism Rat Tail Flick. As to the method:
as §1
(15 mg./kg. sc.) as measured by the rat tail flick procedure (Harris, L.
S. and Pierson, A. K., J. Pharmacol. & Expt. Therap., 143, 141; 1964).

Experiment [5] relates to phenylquinone induced writhing. Put plainly: Phenylquinone writhing, agonist activity, rat. Particulars: subcutaneous, 50 percent reduction in number of writhing, as free base. As to the method: as §1, §2, §3

On to `COC1(C)C2Cc3ccc(O)cc3C1(C)CCN2CC1CCC1` (racemic) [dl-XIIv, 2-Cyclobutylmethyl-5,9β-dimethyl-2'-hydroxy-9β-methoxy-6,7-benzomorphan], for which the “ED50 Antagonist Activity, Oxymorphone Straub Tail” value in experiment [1] amounted to 7.5 mg/kg. Moreover, the “ED50 Agonist Activity, Phenylquinone Writhing, Mouse” value in experiment [2] turned out to be 0.19 mg/kg.
What is called ED50 is the dose that gives a 50% effect, or the effect in half of the subjects. In the case of `CO[C@]1(C)[C@H]2Cc3ccc(O)cc3[C@]1(C)CCN2CC1CC1` (relative stereo) [dl-XIIr, 2-Cyclopropylmethyl-5,9α-dimethyl-2'-hydroxy-9β-methoxy-6,7-benzomorphan], the figures for the ED50 in experiment [1] and in experiment [2] were 3.5 mg/kg and 1.8 mg/kg, respectively.
As for `CO[C@@]1(C)[C@H]2Cc3ccc(O)cc3[C@]1(C)CCN2CC1CC1` (relative stereo) [dl-XIIb, 2-Cyclopropylmethyl-5,9β-dimethyl-2'-hydroxy-9α-methoxy-6,7-benzomorphan], the ED50 in experiment [1] was 0.16 mg/kg; in experiment [2], 1.25 mg/kg; in experiment [3], ~0.017 mg/kg; in experiment [4], 0.011 mg/kg.
Take `CO[C@H]1[C@H]2Cc3ccc(O)cc3[C@]1(C)CCN2CC1CC1` (relative stereo) [dl-XIIa, 2-Cyclopropylmethyl-2'-hydroxy-9α-methoxy-5-methyl-6,7-benzomorphan]: the ED50 in experiment [1] stood at 0.24 mg/kg; in experiment [2], 0.087 mg/kg; in experiment [3], 0.04 mg/kg; in experiment [4], 0.06 mg/kg; in experiment [5] (sc), 0.034 mg/kg.
With `CC(C)=CCN1CCC2(C)c3cc(O)ccc3CC1C2C` (stereo not drawn) [Pentazocine, reference compound], the median effective dose (ED50) in experiment [3] was determined as 10.1 mg/kg.
Take `CCO[C@H]1[C@H]2Cc3ccc(O)cc3[C@]1(C)CCN2CC1CC1` (relative stereo) [dl-XIId, 2-Cyclopropylmethyl-9α-ethoxy-2'-hydroxy-5-methyl-6,7-benzomorphan]: the figures for the ED50 in experiment [1], in experiment [2] and in experiment [4] were 0.32 mg/kg, 0.33 mg/kg and 0.029 mg/kg, respectively.
Regarding `CCCC12CCN(CC3CC3)C(Cc3ccc(O)cc31)C2OC` (racemic) [dl-XIIn, 2-cyclopropylmethyl-2'-hydroxy-9α-methoxy-5-propyl-6,7-benzomorphan], the 50% effective dose (ED50) in experiment [2] was found to be 0.2 mg/kg; in experiment [4], 0.033 mg/kg.
With `C=CCO[C@H]1[C@H]2Cc3ccc(O)cc3[C@]1(C)CCN2CC1CC1` (relative stereo) [dl-XIIe, 9α-Allyloxy-2-cyclopropylmethyl-2'-hydroxy-5-methyl-6,7-benzomorphan], the median effective dose (ED50) was ~0.63 mg/kg in experiment [1] and 5.3 mg/kg in experiment [2].
For the molecule `COC1C2Cc3ccc(O)cc3C1(C)CCN2CC1CC1` (single isomer, unassigned; (-)) [l-XIIa, (-)-2-Cyclopropylmethyl-2'-hydroxy-9α-methoxy-5-methyl-6,7-benzomorphan], the “ED50 Antagonist Activity, Oxymorphone Straub Tail” value in experiment [1] came out at 0.10 mg/kg. Also, the “ED50 Agonist Activity, Phenylquinone Writhing, Mouse” value in experiment [2] came out at 0.053 mg/kg. Moreover, the “ED50 Antagonist Activity, Oxymorphone Narcosis” value in experiment [3] is 0.017 mg/kg. The “ED50 Antagonist Activity, Morphine Antagonism Rat Tail Flick” value in experiment [4] was found to be 0.019 mg/kg. The “ED50 Agonist Activity, Phenylquinone Writhing, Rat” value in experiment [5] was 0.021 mg/kg.
Consider `CO[C@@]1(C)[C@H]2Cc3ccc(O)cc3[C@]1(C)CCN2CC1CCC1` (relative stereo) [dl-XIIc, 2-Cyclobutylmethyl-5,9β-dimethyl-2'-hydroxy-9α-methoxy-6,7-benzomorphan], for which the values for the ED50 in experiment [1] and in experiment [2] were 1.25 mg/kg and 2.18 mg/kg, respectively.
In the case of `C=CC[C@]12CCN(CC3CC3)[C@H](Cc3ccc(O)cc31)[C@@H]2OC` (relative stereo) [dl-XIIm, 5-Allyl-2-cyclopropylmethyl-2'-hydroxy-9α-methoxy-6,7-benzomorphan], the ED50 amounted to 0.026 mg/kg in experiment [2] and 0.046 mg/kg in experiment [4].
For the molecule `CO[C@@H]1[C@H]2Cc3ccc(O)cc3[C@]1(C)CCN2CC1CC1` (relative stereo) [dl-XIIt, 2-Cyclopropylmethyl-2'-hydroxy-9β-methoxy-5-methyl-6,7-benzomorphan], the median effective dose (ED50) in experiment [1] was ~7 mg/kg; in experiment [2] it was ~20 mg/kg; in experiment [4] it was 0.18 mg/kg.
